Assays:
[1] = molecular target: T1, Human δ-opioid (DOP) (Homo sapiens, UniProt P41143); experiment: Radioligand binding, human δ-opioid (DOP) membranes, FlashPlate, [3H]-Bremazocine; conditions: compound at 10 μM; for A1 radioligand binding inhibition: human δ-opioid (DOP) membranes
T1 construct: purchased Perkin Elmer Biosignal
In short: (§1)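 Cloned human receptor membranes were coated onto FlashPlate wells and incubated with radioligand and compound (added from a 0.5 mM DMSO daughter plate) for 1 hour at room temperature in the dark. Scintillation counting gave percent inhibition, with DMSO defining total and reference ligand defining non-specific binding.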

[2] = molecular target: T2, Human κ-Opioid (KOP) (Homo sapiens, UniProt P41145); experiment: Radioligand binding, human κ-opioid (KOP) membranes, filtration, [3H]-Diprenorphine; conditions: compound at 10 μM; for A2 radioligand binding inhibition: human κ-opioid (KOP) membranes
T2 construct: purchased Perkin Elmer Biosignal
T2 sequence (P41145 whole entry): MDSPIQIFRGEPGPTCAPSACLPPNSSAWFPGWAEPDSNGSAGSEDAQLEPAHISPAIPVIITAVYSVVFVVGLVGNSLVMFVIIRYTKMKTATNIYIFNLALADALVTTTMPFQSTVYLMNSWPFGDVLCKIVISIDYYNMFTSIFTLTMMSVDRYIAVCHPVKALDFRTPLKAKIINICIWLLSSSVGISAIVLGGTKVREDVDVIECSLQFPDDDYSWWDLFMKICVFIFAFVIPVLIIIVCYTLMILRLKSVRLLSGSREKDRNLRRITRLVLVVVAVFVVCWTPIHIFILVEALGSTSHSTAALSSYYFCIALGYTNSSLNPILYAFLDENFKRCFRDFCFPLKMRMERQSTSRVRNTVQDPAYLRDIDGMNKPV
In short: (§2)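 Percent inhibition of radioligand binding measured on recombinant human membranes: NK1 with [125I]-Substance P, KOP with [3H]-Diprenorphine. Incubation 1 h at room temperature, then harvest onto 0.3% PEI-soaked filters, cold Tris-HCl pH 7.4 washes and scintillation counting; non-specific binding from reference ligand wells.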

[3] = molecular target: T3, Human Melanocortin (MC3) (Homo sapiens, UniProt P41968); experiment: Radioligand binding, human melanocortin MC3 membranes, FlashPlate, [125I]-NDP-αMSH; conditions: compound at 10 μM; for A3 radioligand binding inhibition: human melanocortin MC3 membranes
T3 construct: purchased Perkin Elmer Biosignal
T3 sequence (P41968 whole entry): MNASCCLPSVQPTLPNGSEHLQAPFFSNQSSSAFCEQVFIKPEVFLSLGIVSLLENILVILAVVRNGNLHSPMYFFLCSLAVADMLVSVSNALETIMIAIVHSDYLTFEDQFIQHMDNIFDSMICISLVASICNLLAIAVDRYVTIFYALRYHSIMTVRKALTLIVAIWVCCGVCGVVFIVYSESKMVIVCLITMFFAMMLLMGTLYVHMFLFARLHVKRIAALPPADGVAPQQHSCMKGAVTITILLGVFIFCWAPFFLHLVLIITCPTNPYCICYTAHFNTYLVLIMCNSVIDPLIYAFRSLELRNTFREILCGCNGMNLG
In short: as §1

[4] = molecular target: T4, Human Melanocortin (MC4) (Homo sapiens, UniProt P32245); experiment: Radioligand binding, human melanocortin MC4 membranes, FlashPlate, [125I]-NDP-αMSH; conditions: compound at 10 μM; for A4 radioligand binding inhibition: human melanocortin MC4 membranes
T4 construct: purchased Perkin Elmer Biosignal
T4 sequence (P32245 whole entry): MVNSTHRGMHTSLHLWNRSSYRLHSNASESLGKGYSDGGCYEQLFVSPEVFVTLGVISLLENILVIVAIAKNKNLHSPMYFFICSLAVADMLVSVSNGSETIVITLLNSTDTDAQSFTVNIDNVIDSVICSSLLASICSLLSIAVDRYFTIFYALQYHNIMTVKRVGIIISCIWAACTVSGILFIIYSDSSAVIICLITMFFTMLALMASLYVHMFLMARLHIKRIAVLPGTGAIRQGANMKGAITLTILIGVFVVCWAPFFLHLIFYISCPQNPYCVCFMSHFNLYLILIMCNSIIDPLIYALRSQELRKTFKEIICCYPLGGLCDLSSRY
In short: as §1

[5] = molecular target: T5, Human melanocortin (MC5) (Homo sapiens, UniProt P33032); experiment: Radioligand binding, human melanocortin MC5 membranes, FlashPlate, [125I]-NDP-αMSH; conditions: compound at 10 μM; for A5 radioligand binding inhibition: human melanocortin MC5 membranes
T5 construct: purchased Perkin Elmer Biosignal
T5 sequence (P33032 whole entry): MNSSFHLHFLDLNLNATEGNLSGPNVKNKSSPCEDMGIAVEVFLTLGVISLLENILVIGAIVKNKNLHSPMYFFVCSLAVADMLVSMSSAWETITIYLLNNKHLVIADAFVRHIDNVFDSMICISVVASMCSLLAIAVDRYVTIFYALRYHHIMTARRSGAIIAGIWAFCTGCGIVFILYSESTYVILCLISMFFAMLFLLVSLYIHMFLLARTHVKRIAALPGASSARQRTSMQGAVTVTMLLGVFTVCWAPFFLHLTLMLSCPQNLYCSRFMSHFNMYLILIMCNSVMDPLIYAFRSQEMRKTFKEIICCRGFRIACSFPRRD
In short: as §1

[6] = molecular target: T6, Human melanin-concentrating hormone (MCH1) (Homo sapiens, UniProt Q99705); experiment: Radioligand binding, human melanin-concentrating hormone MCH1 membranes, FlashPlate, [125I]-S36057; conditions: compound at 10 μM; for A6 radioligand binding inhibition: human MCH1 membranes
T6 construct: purchased Perkin Elmer Biosignal
T6 sequence (Q99705 whole entry): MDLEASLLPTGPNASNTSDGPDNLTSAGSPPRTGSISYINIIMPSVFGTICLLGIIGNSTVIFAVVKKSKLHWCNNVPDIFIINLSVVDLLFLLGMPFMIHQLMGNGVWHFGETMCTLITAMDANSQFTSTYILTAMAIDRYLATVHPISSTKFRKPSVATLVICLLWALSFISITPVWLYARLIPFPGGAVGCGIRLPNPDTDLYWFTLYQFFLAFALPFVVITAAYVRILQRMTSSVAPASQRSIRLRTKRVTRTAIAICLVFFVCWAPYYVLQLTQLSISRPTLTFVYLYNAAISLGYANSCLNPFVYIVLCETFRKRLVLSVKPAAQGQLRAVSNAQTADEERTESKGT
In short: as §1

[7] = molecular target: T7, Human μ-opioid (MOP) (Homo sapiens, UniProt P35372); experiment: Radioligand binding, human μ-opioid (MOP) membranes, FlashPlate, [3H]-Naloxone; conditions: compound at 10 μM; for A7 radioligand binding inhibition: human μ-opioid (MOP) membranes
T7 construct: purchased Perkin Elmer Biosignal
T7 sequence (P35372 whole entry): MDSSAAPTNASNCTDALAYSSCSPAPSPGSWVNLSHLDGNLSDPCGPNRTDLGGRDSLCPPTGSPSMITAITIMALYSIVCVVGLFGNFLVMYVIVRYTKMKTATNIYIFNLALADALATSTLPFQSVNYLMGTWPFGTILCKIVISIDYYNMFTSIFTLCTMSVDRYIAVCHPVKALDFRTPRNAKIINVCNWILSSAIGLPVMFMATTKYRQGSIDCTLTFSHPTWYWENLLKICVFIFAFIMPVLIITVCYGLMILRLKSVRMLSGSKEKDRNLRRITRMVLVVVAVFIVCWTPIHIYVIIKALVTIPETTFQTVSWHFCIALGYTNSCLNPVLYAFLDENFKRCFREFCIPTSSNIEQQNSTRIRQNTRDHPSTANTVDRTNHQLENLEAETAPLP
In short: as §1

[8] = molecular target: T8, Human neurokinin (NK1) (Homo sapiens, UniProt P25103); experiment: Radioligand binding, human neurokinin NK1 membranes, filtration, [125I]-Substance P; conditions: compound at 10 μM; for A8 radioligand binding inhibition: human neurokinin NK1 membranes
T8 construct: purchased Perkin Elmer Biosignal
T8 sequence (P25103 whole entry): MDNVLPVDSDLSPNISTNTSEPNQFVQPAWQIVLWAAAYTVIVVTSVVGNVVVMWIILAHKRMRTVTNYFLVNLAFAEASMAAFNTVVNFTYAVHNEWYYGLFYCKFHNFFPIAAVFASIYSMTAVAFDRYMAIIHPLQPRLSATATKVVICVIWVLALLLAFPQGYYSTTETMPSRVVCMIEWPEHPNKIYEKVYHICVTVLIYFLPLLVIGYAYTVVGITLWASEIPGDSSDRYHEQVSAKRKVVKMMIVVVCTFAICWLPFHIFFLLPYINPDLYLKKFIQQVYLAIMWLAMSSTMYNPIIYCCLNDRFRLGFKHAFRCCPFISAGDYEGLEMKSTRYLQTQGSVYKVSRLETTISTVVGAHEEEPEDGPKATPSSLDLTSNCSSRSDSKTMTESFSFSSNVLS
In short: as §2

[9] = molecular target: T9, Human neuropeptide Y (NPY-Y1) (Homo sapiens, UniProt P25929); experiment: Radioligand binding, human neuropeptide Y NPY-Y1 membranes, FlashPlate, [125I]-PYY; conditions: compound at 10 μM; for A9 radioligand binding inhibition: human NPY-Y1 membranes
T9 construct: purchased Perkin Elmer Biosignal
T9 sequence (P25929 1-384): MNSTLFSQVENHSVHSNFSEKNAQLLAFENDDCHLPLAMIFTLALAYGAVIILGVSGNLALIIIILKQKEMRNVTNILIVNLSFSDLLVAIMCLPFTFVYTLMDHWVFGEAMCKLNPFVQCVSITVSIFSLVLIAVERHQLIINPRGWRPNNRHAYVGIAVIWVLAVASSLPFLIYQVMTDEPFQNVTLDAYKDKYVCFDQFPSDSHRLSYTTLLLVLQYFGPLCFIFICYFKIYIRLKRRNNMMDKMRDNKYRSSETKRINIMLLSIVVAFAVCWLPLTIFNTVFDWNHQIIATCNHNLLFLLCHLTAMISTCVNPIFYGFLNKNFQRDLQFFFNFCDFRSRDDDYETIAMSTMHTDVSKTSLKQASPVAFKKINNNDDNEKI
In short: as §1

[10] = molecular target: T10, Human opioid (ORL1) (Homo sapiens, UniProt P41146); experiment: Radioligand binding, human opioid ORL1 membranes, FlashPlate, [125I]-Nociceptin; conditions: compound at 10 μM; for A10 radioligand binding inhibition: human ORL1 membranes
T10 construct: purchased Perkin Elmer Biosignal
T10 sequence (P41146 whole entry): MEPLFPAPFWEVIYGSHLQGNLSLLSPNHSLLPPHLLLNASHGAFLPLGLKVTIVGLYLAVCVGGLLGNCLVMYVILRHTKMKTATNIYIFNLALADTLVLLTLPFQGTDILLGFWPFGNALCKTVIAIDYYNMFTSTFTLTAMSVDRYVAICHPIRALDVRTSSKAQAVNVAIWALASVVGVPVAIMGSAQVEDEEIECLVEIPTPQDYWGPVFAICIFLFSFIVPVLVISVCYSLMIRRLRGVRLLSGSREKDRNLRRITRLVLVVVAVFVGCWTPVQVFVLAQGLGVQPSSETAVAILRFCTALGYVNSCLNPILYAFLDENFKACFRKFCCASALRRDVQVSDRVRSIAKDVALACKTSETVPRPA
In short: as §1

[11] = molecular target: T11, Mouse urotensin (mUR2) (Mus musculus, UniProt Q8VIH9); experiment: Radioligand binding, mouse urotensin mUR2 membranes, FlashPlate, [125I]-Urotensin II; conditions: compound at 10 μM; for A11 radioligand binding inhibition: mouse urotensin mUR2 membranes
T11 construct: purchased Perkin Elmer Biosignal
T11 sequence (Q8VIH9 1-385): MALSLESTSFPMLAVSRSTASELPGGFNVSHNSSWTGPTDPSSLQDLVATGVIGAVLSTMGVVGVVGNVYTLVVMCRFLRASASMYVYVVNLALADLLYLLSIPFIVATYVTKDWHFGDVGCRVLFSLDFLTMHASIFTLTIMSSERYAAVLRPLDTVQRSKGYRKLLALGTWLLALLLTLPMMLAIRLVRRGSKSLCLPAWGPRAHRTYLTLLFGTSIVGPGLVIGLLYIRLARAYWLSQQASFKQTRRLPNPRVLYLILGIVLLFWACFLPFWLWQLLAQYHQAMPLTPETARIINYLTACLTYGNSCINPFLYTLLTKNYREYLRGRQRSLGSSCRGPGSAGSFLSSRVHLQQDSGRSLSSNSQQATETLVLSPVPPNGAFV
In short: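 Cloned mouse urotensin (mUR2) receptor membranes from Perkin Elmer Biosignal were immobilized in FlashPlate microplates using a proprietary coating. Each well got 19.5 μl buffer, then 0.5 μl of DMSO, reference ligand, or compound. Adding 5 μl of [125I]-Urotensin II, diluted to 5× final concentration in binding buffer, started binding. Plates were sealed with TopSeal-A and incubated 1 hour at room temperature in the dark. Wells were counted for 30 seconds each on a TopCount after a 60-second delay, and percentage inhibition was calculated.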

T1 sequence (P41143 whole entry): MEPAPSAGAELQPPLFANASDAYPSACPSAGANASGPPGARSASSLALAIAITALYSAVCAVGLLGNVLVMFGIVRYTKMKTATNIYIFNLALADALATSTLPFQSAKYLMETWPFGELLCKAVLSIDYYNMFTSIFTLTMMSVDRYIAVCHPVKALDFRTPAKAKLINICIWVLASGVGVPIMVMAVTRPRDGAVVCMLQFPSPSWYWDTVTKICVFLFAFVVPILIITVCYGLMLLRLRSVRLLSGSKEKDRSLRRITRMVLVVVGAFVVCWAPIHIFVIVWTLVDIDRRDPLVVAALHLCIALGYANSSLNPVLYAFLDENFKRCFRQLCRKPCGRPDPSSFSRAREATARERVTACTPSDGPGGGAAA

SMILES	A1 radioligand binding inhibition [1]	A2 radioligand binding inhibition [2]	A3 radioligand binding inhibition [3]	A4 radioligand binding inhibition [4]	A5 radioligand binding inhibition [5]	A6 radioligand binding inhibition [6]	A7 radioligand binding inhibition [7]	A8 radioligand binding inhibition [8]	A9 radioligand binding inhibition [9]	A10 radioligand binding inhibition [10]	A11 radioligand binding inhibition [11]	further results
COC[C@H]1OC(OCc2ccc(Cl)cc2)[C@H](NC(=O)CCCNC(=N)N)[C@@H](OCc2ccc3ccccc3c2)[C@@H]1O (stereo partly drawn) [compound 33]	− (“−” indicates less than 50% inhibition at 10 μM)	− (“−” indicates less than 50% inhibition at 10 μM)	− (“−” indicates less than 50% inhibition at 10 μM)	− (“−” indicates less than 50% inhibition at 10 μM)	− (“−” indicates less than 50% inhibition at 10 μM)	+ (“+” indicates greater than 50% inhibition at 10 μM)	− (“−” indicates less than 50% inhibition at 10 μM)	+ (“+” indicates greater than 50% inhibition at 10 μM)	− (“−” indicates less than 50% inhibition at 10 μM)	− (“−” indicates less than 50% inhibition at 10 μM)	− (“−” indicates less than 50% inhibition at 10 μM)	–
N=C(N)NCC(=O)N[C@H]1C(OCc2ccc(Cl)cc2)O[C@H](COCc2ccccc2)[C@@H](O)[C@@H]1OCc1ccc(-c2ccccc2)cc1 (stereo partly drawn) [compound 519]	–	–	–	–	–	–	–	–	–	–	–	A1: inhibition of radioligand binding, human δ-opioid (DOP) ([1]; [3H]-Bremazocine): − (“−” indicates less than 50% inhibition at 10 μM); A2: inhibition of radioligand binding, human κ-opioid (KOP) ([2]; [3H]-Diprenorphine): − (“−” indicates less than 50% inhibition at 10 μM); A3: inhibition of radioligand binding, human melanocortin (MC3) ([3]; [125I]-NDP-αMSH, 10 µM): + (“+” indicates greater than 50% inhibition at 10 μM); A4: inhibition of radioligand binding, human melanocortin (MC4) ([4]; [125I]-NDP-αMSH, 10 µM): + (“+” indicates greater than 50% inhibition at 10 μM); A5: inhibition of radioligand binding, human melanocortin (MC5) ([5]; [125I]-NDP-αMSH, 10 µM): + (“+” indicates greater than 50% inhibition at 10 μM); A6: inhibition of radioligand binding, human melanin-concentrating hormone (MCH1) ([6]; [125I]-S36057, 10 µM): + (“+” indicates greater than 50% inhibition at 10 μM); A7: inhibition of radioligand binding, human μ-opioid (MOP) ([7]; [3H]-Naloxone): − (“−” indicates less than 50% inhibition at 10 μM); A8: inhibition of radioligand binding, human neurokinin (NK1) ([8]; [125I]-Substance P): + (“+” indicates greater than 50% inhibition at 10 μM); A9: inhibition of radioligand binding, human neuropeptide Y (NPY-Y1) ([9]; [125I]-PYY): − (“−” indicates less than 50% inhibition at 10 μM); A10: inhibition of radioligand binding, human opioid (ORL1) ([10]; [125I]-Nociceptin): − (“−” indicates less than 50% inhibition at 10 μM); A11: inhibition of radioligand binding, mouse urotensin (mUR2) ([11]; [125I]-Urotensin II): − (“−” indicates less than 50% inhibition at 10 μM)
CO[C@H]1[C@H](O)[C@@H](COCc2ccc(-c3ccccc3)cc2)OC(OCc2ccc(-c3ccccc3)cc2)[C@@H]1NC(=O)CCCN (stereo partly drawn) [compound 53]	− (“−” indicates less than 50% inhibition at 10 μM)	− (“−” indicates less than 50% inhibition at 10 μM)	− (“−” indicates less than 50% inhibition at 10 μM)	− (“−” indicates less than 50% inhibition at 10 μM)	− (“−” indicates less than 50% inhibition at 10 μM)	+ (“+” indicates greater than 50% inhibition at 10 μM)	− (“−” indicates less than 50% inhibition at 10 μM)	− (“−” indicates less than 50% inhibition at 10 μM)	− (“−” indicates less than 50% inhibition at 10 μM)	− (“−” indicates less than 50% inhibition at 10 μM)	− (“−” indicates less than 50% inhibition at 10 μM)	–

Source: US20080009418A1, “Selective Inhibitors” (Alchemia LTD., priority 2004, published 2008)
